The record followed here is patent US20240025905A1, “SALTS OF DIHYDROPYRIMIDINE DERIVATIVES, COMPLEXES AND USES THEREOF IN MEDICINE” (SUNSHINE LAKE PHARMA CO., LTD., priority 2020, published 2024).

A short description of series [1]: Stability test (high temperature, high humidity and light tests). The class given is physicochemical. The following applies: for stability (in words): high temperature, high humidity or light conditions for 10 days. The procedure:
High temperature test: An appropriate amount of the test product was added into a flat weighing bottle and spread into a thin layer with thickness ≤5 mm. The bottle was placed at 60° C. or 40° C. for 10 days. Samples were taken at the 5th and 10th days to check the appearance, related substances and purity.
High humidity test: An appropriate amount of the test product was added into a flat weighing bottle and spread into a thin layer with thickness 5 mm. The bottle was placed at 25° C. and a relative humidity of 90%±5% for 10 days. Samples were taken at the 5th and 10th days to check the appearance, related substances and purity. At the same time, the weight of the test product before and after the test were accurately weighed to investigate the moisture absorption and deliquescence performance of the test product. Light test: An appropriate amount of the test product was added into a flat weighing bottle and spread into a thin layer with thickness ≤5 mm. The bottle was opened and placed in a light box (with UV) at the illuminance 4500±500 lx, UV light≥0.7 w/m^2 for 10 days. Samples were taken at the 5th and 10th days to check the appearance, related substances and purity.

The nature of series [2]: Pharmacokinetic evaluation of experimental animals after oral administration. As to conditions: beagle dogs, oral via capsules, 10 mg/kg. The class given is in vivo, Beagle dogs. The procedure: Blood samples were taken at 0.25, 0.5, 1, 2, 4, 6, 8 and 24 hours from forelimb vein after the administration, and collected in anticoagulation tube with EDTA-K2. After liquid-liquid extraction, the blood samples were quantitatively analyzed on a triple quadrupole tandem mass spectrometer using multiple reactive ion monitoring (MRM). Pharmacokinetic parameters (AUC0-t and Cmax) were calculated using a noncompartmental method by WinNonLin 6.3 software.

Where [3] appears, read: High humidity (90% RH), 25° C., 5 days.
[4] abbreviates: High humidity (90% RH), 25° C., 10 days.
The mark [5] stands for this setting: High temperature (60° C.), 5 days.
The mark [6] stands for this setting: High temperature (60° C.), 10 days.
The mark [7] stands for this setting: Light (4500±500 lx, UV light≥0.7 w/m^2), 5 days.
The mark [8] stands for this setting: Light (4500±500 lx, UV light≥0.7 w/m^2), 10 days.

Consider `Br.COC(=O)C1=C(CN2CCN3C(=O)N(c4ccc(CCC(=O)O)cc4F)C[C@@H]3C2)N=C(c2nccs2)N[C@H]1c1ccc(F)cc1Cl` [3-(4-((S)-7-(((R)-6-(2-chloro-4-fluorophenyl)-5-(methoxycarbonyl)-2-(thiazol-2-yl)-1,6-dihydropyrimidin-4-yl)methyl)-3-oxohexahydroimidazo[1,5-a]pyrazine-2(3H)-yl)-3-fluorophenyl)propionic acid hydrobromide crystal form A], for which the “Purity (%)” value in series [1] (0 days) amounted to 98.41%; in series [1] (setting [3]), 98.82%; in series [1] (setting [4]), 98.69%; in series [1] (setting [5]), 98.43%; in series [1] (setting [6]) it was 98.93%; in series [1] (setting [7]), 98.80%. In addition, the “Purity (%)” value in series [1] (setting [8]) is 98.88%. In series [1], the “stability (in words)” value was “very good”. In series [2], this compound yielded an AUC0-t of 5690 ng·h/mL. Also, the Cmax in series [2] was found to be 3340 ng/mL.

For the compound `COC(=O)C1=C(CN2CCN3C(=O)N(c4ccc(CCC(=O)O)cc4F)C[C@@H]3C2)N=C(c2nccs2)N[C@H]1c1ccc(F)cc1Cl.CS(=O)(=O)O` [3-(4-((S)-7-(((R)-6-(2-chloro-4-fluorophenyl)-5-(methoxycarbonyl)-2-(thiazol-2-yl)-1,6-dihydropyrimidin-4-yl)methyl)-3-oxohexahydroimidazo[1,5-a]pyrazine-2(3H)-yl)-3-fluorophenyl)propionic acid methanesulfonate crystal form A], the “Purity (%)” value amounted to 99.40% in series [1] (0 days); 99.37% in series [1] (setting [3]); 99.36% in series [1] (setting [4]); 99.15% in series [1] (setting [5]); 98.68% in series [1] (setting [6]); 99.37% in series [1] (setting [7]). Besides, the “Purity (%)” value in series [1] (setting [8]) turned out to be 99.40%. For the same compound, the “stability (in words)” value in series [1] is listed as “very good”.

In the case of `CN(C)C=O.COC(=O)C1=C(CN2CCN3C(=O)N(c4ccc(CCC(=O)O)cc4F)C[C@@H]3C2)NC(c2nccs2)=N[C@H]1c1ccc(F)cc1Cl` [3-(4-((S)-7-(((R)-6-(2-chloro-4-fluorophenyl)-5-(methoxycarbonyl)-2-(thiazol-2-yl)-3,6-dihydropyrimidin-4-yl)methyl)-3-oxohexahydroimidazo[1,5-a]pyrazine-2(3H)-yl)-3-fluorophenyl)prop ionic acid N,N-dimethylformamide complex], the “Purity (%)” value in series [1] (0 days) came out at 98.63%; in series [1] (setting [3]), 98.87%; in series [1] (setting [4]), 98.71%; in series [1] (setting [5]), 98.48%; in series [1] (setting [6]), 97.76%; in series [1] (setting [7]), 98.82%. Besides, the “Purity (%)” value in series [1] (setting [8]) came out at 98.48%. The “stability (in words)” value in series [1] is listed as “very good”.

`COC(=O)C1=C(CN2CCN3C(=O)N(c4ccc(CCC(=O)O)cc4F)C[C@@H]3C2)N=C(c2nccs2)N[C@H]1c1ccc(F)cc1Cl.O=S(=O)(O)O` [Sulfate crystal form A of the compound having Formula (Ia)] [3-(4-((S)-7-(((R)-6-(2-chloro-4-fluorophenyl)-5-(methoxycarbonyl)-2-(thiazol-2-yl)-1,6-dihydropyrimidin-4-yl)methyl)-3-oxohexahydroimidazo[1,5-a]pyrazine-2(3H)-yl)-3-fluorophenyl)prop ionic acid sulfate crystal form A]: the “Purity (%)” value in series [1] (0 days) is listed as 99.14%; in series [1] (setting [3]) it was 99.17%; in series [1] (setting [4]), 99.22%; in series [1] (setting [5]), 99.16%; in series [1] (setting [6]) it was 99.12%; in series [1] (setting [7]) it was 99.17%. Also, in series [1] (setting [8]), the “Purity (%)” value stood at 99.15%. For the same compound, the “stability (in words)” value in series [1] is on record as “very good”.
